In ChEMBL document CHEMBL5042512 (Eur J Med Chem, 2022):
Calls of active or inactive are those of the source. The rule behind the calls is not given here.

Tests used:
[1] = tested on: KYSE-30; assay: Antiproliferative activity against human KYSE-30 cells assessed as cell viability measured after 48 hrs by CCK8 assay; format: functional, cell-based; conditions: KYSE-30, 48 h
[2] = tested on: KYSE-450; assay: Induction of mitochondrial membrane potential loss in human KYSE-450 cells assessed as Mcl-1 expression at 80 to 100 nM measured after 48 hrs by western blot analysis; format: functional, cell-based; conditions: dose 80-100 nM
[3] = tested on: KYSE-450; assay: Induction of mitochondrial membrane potential loss in human KYSE-450 cells assessed as Bak expression at 80 to 100 nM measured after 48 hrs by western blot analysis; format: functional, cell-based; conditions: dose 80-100 nM
[4] = tested on: KYSE-30; assay: Induction of cell cycle arrest in human KYSE-30 cells assessed as accumulation at G2/M phase at 100 nM measured after 48 hrs by flow cytometry analysis (reference value: 19.38 %); format: functional
[5] = tested on: KYSE-30; assay: Induction of apoptosis in human KYSE-30 cells assessed as apoptotic cells at 80 nM measured after 48 hrs by annexin-V-FITC and PI staining based flow cytometry analysis (reference value: 8.1667 %); format: functional
[6] = tested on: KYSE-450; assay: Up regulation of p-Histone H3 protein expression in human KYSE-450 cells at 80 to 100 nM for 48 hrs by western blot analysis; format: functional, cell-based; conditions: dose 80-100 nM
[7] = tested on: KYSE-450; assay: Antiproliferative activity against human KYSE-450 cells assessed as inhibition of colony formation at 40 to 60 nM for 7 days by crystal violet staining based analysis; format: functional, cell-based; conditions: dose 40-60 nM, time 7.0 day
[8] = tested on: KYSE-30; assay: Induction of mitochondrial membrane potential loss in human KYSE-30 cells assessed as upregulation of Bax protein at 80 to 100 nM measured after 48 hrs by western blot analysis; format: functional, cell-based; conditions: dose 80-100 nM
[9] = tested on: KYSE-30; assay: Antiproliferative activity against human KYSE-30 cells assessed as inhibition of colony formation at 40 to 60 nM for 7 days by crystal violet staining based analysis; format: functional, cell-based; conditions: dose 40-60 nM, time 7.0 day
[10] = tested on: KYSE-450; assay: Down regulation of CDK1 protein expression in human KYSE-450 cells at 80 to 100 nM for 48 hrs by western blot analysis; format: functional, cell-based; conditions: dose 80-100 nM
[11] = tested on: KYSE-450; assay: Induction of mitochondrial membrane potential loss in human KYSE-450 cells assessed as upregulation of Bax protein at 80 to 100 nM measured after 48 hrs by western blot analysis; format: functional, cell-based; conditions: dose 80-100 nM
[12] = target: T1, Tubulin (Homo sapiens) (UniProt P68371+Q9H4B7+P0DPH7+P68366+Q13509+Q71U36+P04350+Q3ZCM7+P07437+P68363+Q9BQE3+Q6PEY2+Q13885+Q9BVA1+Q9BUF5); assay: Inhibition of tubulin polymerization in human KYSE-450 cells assessed as microtubule assembly at 0.1 uM measured after 48 hrs by immunofluorescence assay; format: cell-based
[13] = tested on: KYSE-30; assay: Induction of mitochondrial membrane potential loss in human KYSE-30 cells assessed as mitochondrial depolarization at 80 to 100 nM measured after 48 hrs by JCI staining based flow cytometry; format: functional, cell-based; conditions: dose 80-100 nM
[14] = tested on: KYSE-450; assay: Induction of apoptosis in human KYSE-450 cells assessed as apoptotic cells at 100 nM measured after 48 hrs by annexin-V-FITC and PI staining based flow cytometry analysis (reference value: 8.1667 %); format: functional
[15] = tested on: KYSE-450; assay: Induction of apoptosis in human KYSE-450 cells assessed as caspase-3 cleavage at 80 to 100 nM measured after 48 hrs by western blot analysis; format: functional, cell-based; conditions: dose 80-100 nM
[16] = tested on: KYSE-450; assay: Induction of mitochondrial membrane potential loss in human KYSE-450 cells assessed as Bcl-xL expression at 80 to 100 nM measured after 48 hrs by western blot analysis; format: functional, cell-based; conditions: dose 80-100 nM
[17] = tested on: KYSE-450; assay: Down regulation of CDC25C protein expression in human KYSE-450 cells at 80 to 100 nM for 48 hrs by western blot analysis; format: functional, cell-based; conditions: dose 80-100 nM
[18] = tested on: KYSE-30; assay: Induction of apoptosis in human KYSE-30 cells assessed as apoptotic cells at 100 nM measured after 48 hrs by annexin-V-FITC and PI staining based flow cytometry analysis (reference value: 8.1667 %); format: functional
[19] = tested on: KYSE-30; assay: Induction of mitochondrial membrane potential loss in human KYSE-30 cells assessed as downregulation of Bcl-2 protein at 80 to 100 nM measured after 48 hrs by western blot analysis; format: functional, cell-based; conditions: dose 80-100 nM
[20] = tested on: KYSE-30; assay: Induction of apoptosis in human KYSE-30 cells assessed as caspase-3 cleavage at 80 to 100 nM measured after 48 hrs by western blot analysis; format: functional, cell-based; conditions: dose 80-100 nM
[21] = tested on: KYSE-30; assay: Induction of mitochondrial membrane potential loss in human KYSE-30 cells assessed as Mcl-1 expression at 80 to 100 nM measured after 48 hrs by western blot analysis; format: functional, cell-based; conditions: dose 80-100 nM
[22] = tested on: KYSE-450; assay: Induction of cell cycle arrest in human KYSE-450 cells assessed as accumulation at G2/M phase at 100 nM measured after 48 hrs by flow cytometry analysis (reference value: 7.04333 %); format: functional
[23] = tested on: KYSE-30; assay: Down regulation of CDC25C protein expression in human KYSE-30 cells at 80 to 100 nM for 48 hrs by western blot analysis; format: functional, cell-based; conditions: dose 80-100 nM
[24] = tested on: HCT-116; assay: Antiproliferative activity against human HCT-116 cells assessed as cell growth inhibition measured after 48 hrs by CCK8 assay; format: functional, cell-based; conditions: HCT-116, 48 h
[25] = tested on: KYSE-450; assay: Induction of mitochondrial membrane potential loss in human KYSE-450 cells assessed as upregulation of NOXA protein at 80 to 100 nM measured after 48 hrs by western blot analysis; format: functional, cell-based; conditions: dose 80-100 nM
[26] = tested on: KYSE-450; assay: Down regulation of p-wee1 protein expression in human KYSE-450 cells at 80 to 100 nM for 48 hrs by western blot analysis; format: functional, cell-based; conditions: dose 80-100 nM
[27] = tested on: KYSE-30; assay: Down regulation of CDK1 protein expression in human KYSE-30 cells at 80 to 100 nM for 48 hrs by western blot analysis; format: functional, cell-based; conditions: dose 80-100 nM
[28] = tested on: KYSE-450; assay: Antiproliferative activity against human KYSE-450 cells assessed as cell viability measured up to 48 hrs by CCK8 assay; format: functional, cell-based; conditions: time hrs <=48, TDE = time-dependent effect
[29] = tested on: KYSE-450; assay: Induction of apoptosis in human KYSE-450 cells assessed as PARP cleavage at 80 to 100 nM measured after 48 hrs by western blot analysis; format: functional, cell-based; conditions: dose 80-100 nM
[30] = tested on: KYSE-450; assay: Antiproliferative activity against human KYSE-450 cells assessed as cell growth inhibition measured after 48 hrs by CCK8 assay; format: functional, cell-based; conditions: KYSE-450, 48 h
[31] = tested on: KYSE-30; assay: Induction of mitochondrial membrane potential loss in human KYSE-30 cells assessed as decrease in XIAP level at 80 to 100 nM measured after 48 hrs by western blot analysis; format: functional, cell-based; conditions: dose 80-100 nM
[32] = tested on: KYSE-30; assay: Induction of mitochondrial membrane potential loss in human KYSE-30 cells assessed as Bcl-xL expression at 80 to 100 nM measured after 48 hrs by western blot analysis; format: functional, cell-based; conditions: dose 80-100 nM
[33] = target: T1, Tubulin (Homo sapiens); assay: Inhibition of tubulin polymerization in human KYSE-30 cells assessed as weakening of beta tubulin at 100 to 300 nM for 2 hrs by EBI alkylate competition assay; format: cell-based; conditions: dose 100-300 nM
[34] = tested on: KYSE-30; assay: Induction of mitochondrial membrane potential loss in human KYSE-30 cells assessed as upregulation of NOXA protein at 80 to 100 nM measured after 48 hrs by western blot analysis; format: functional, cell-based; conditions: dose 80-100 nM
[35] = tested on: KYSE-450; assay: Induction of mitochondrial membrane potential loss in human KYSE-450 cells assessed as mitochondrial depolarization at 80 to 100 nM measured after 48 hrs by JCI staining based flow cytometry; format: functional, cell-based; conditions: dose 80-100 nM

**Q.** For `COc1ccc(CN(C(=O)CSC(=S)N2CCN(C(=O)OC(C)(C)C)CC2)c2cc(OC)c(OC)c(OC)c2)cc1O`, which IC50 [1] is on record?
**A.** 69 nM

**Q.** And the Activity [2]?
**A.** inactive

**Q.** What about the Activity [3] of the same molecule?
**A.** inactive

**Q.** What about the Activity [4] of the same molecule?
**A.** 76.9767%

**Q.** What about the Activity [5] of the same molecule?
**A.** 23.8%

**Q.** And the Activity [6]?
**A.** Dose-Dependent Effect

**Q.** And the inhibition [7]?
**A.** Active

**Q.** What about the Activity [8] of the same molecule?
**A.** Dose-Dependent Effect

**Q.** What about the inhibition [9] of the same molecule?
**A.** Active

**Q.** What about the Activity [10] of the same molecule?
**A.** Dose-Dependent Effect

**Q.** What about the Activity [11] of the same molecule?
**A.** Dose-Dependent Effect

**Q.** And the inhibition [12]?
**A.** Active

**Q.** What about the Activity [13] of the same molecule?
**A.** Active

**Q.** What about the Activity [14] of the same molecule?
**A.** 57.3667%

**Q.** What about the Activity [15] of the same molecule?
**A.** Active

**Q.** What about the Activity [16] of the same molecule?
**A.** inactive

**Q.** What about the Activity [17] of the same molecule?
**A.** Dose-Dependent Effect

**Q.** What about the Activity [18] of the same molecule?
**A.** 38.633%

**Q.** And the Activity [19]?
**A.** Dose-Dependent Effect

**Q.** And the Activity [20]?
**A.** Active

**Q.** And the Activity [21]?
**A.** inactive

**Q.** What about the Activity [22] of the same molecule?
**A.** 80.8933%

**Q.** What about the Activity [23] of the same molecule?
**A.** Dose-Dependent Effect

**Q.** And the IC50 [24]?
**A.** 128 nM

**Q.** And the Activity [25]?
**A.** Dose-Dependent Effect

**Q.** And the Activity [26]?
**A.** Dose-Dependent Effect

**Q.** And the Activity [27]?
**A.** Dose-Dependent Effect

**Q.** And the inhibition [28]?
**A.** Tde

**Q.** And the Activity [29]?
**A.** Active

**Q.** What about the IC50 [30] of the same molecule?
**A.** 76 nM

**Q.** And the Activity [31]?
**A.** Dose-Dependent Effect

**Q.** And the Activity [32]?
**A.** inactive

**Q.** What about the inhibition [33] of the same molecule?
**A.** Active

**Q.** What about the Activity [34] of the same molecule?
**A.** Dose-Dependent Effect

**Q.** What about the Activity [35] of the same molecule?
**A.** Active
